From paper PMC9457773 (Molecules, 2022)
Like-named read-outs stand apart in the source and are kept apart here. Each block holds one compound with its values, some of them ahead of it.

How the values were obtained:
[1] = rat; for Stability, Bench-Top: measured concentration: 4 h; for Stability, Autosampler: measured concentration: 12 h; for Stability, Long-Term: measured concentration: 30 days
Procedure: (§1) A 5 μL aliquot of the mixed working solution was added to 45 μL of blank plasma to prepare the calibration standards.
(§2) The selectivity of the method was assessed by comparing the chromatograms of six independent blank rat plasma samples, simulated plasma samples in which blank rat plasma samples were spiked with working solution at a lower limit of quantitation (LLOQ) and IS, and actual plasma samples collected from rats. […] Different concentrations of the QC and LLOQ samples, with six replicates at each concentration, were used to evaluate precision and accuracy, and inter-batch precision and accuracy were evaluated by measurements for three consecutive days. The precision was expressed as the coefficient of variation (CV%), and the accuracy was expressed as the relative error (RE%). The extraction recovery was evaluated by comparing the peak areas of blank plasma spiked with working solution pre-extraction and blank plasma spiked with working solution post-extraction. The matrix effect was evaluated by the ratio of the peak area of the analyte in the plasma to the peak area of the analyte in solution at three concentrations of the QC samples. […] Three concentrations of the QC samples, with six replicates at each concentration level, were used to examine the stability of the three analytes at room temperature for 4 h, in the autosampler for 12 h, at −80 °C for 30 days, and freeze–thaw three times.

[2] = literature value, Introduction; cited from earlier work
[3] = literature value, Introduction, cited from earlier work
[4] = literature statement in words, Introduction, cited from earlier work
[5] = Pharmacokinetic and drug–drug interaction study in rats (plasma, UPLC–MS/MS); details: for AUC(0-inf): AUCinf; for AUC(0-t): AUClast; for CL/F: CLz/F; for Tmax: median (range); for Vd/F: Vz/F; for half-life: t1/2z
Procedure: First, 50 μL of the plasma sample was added to 5 μL of the mixture IS working solution and 500 μL of the extraction reagent (methyl tert-butyl ether and ethyl acetate, 1:4) vortex-mixed for 3 min and then centrifuged at 12,000 rpm for 10 min. Next, 400 μL of supernatant was transferred into a new centrifuge tube, which was blown dry under a stream of nitrogen, and the residue was re-solubilized with 150 μL of 50% acetonitrile–water.
The concentrations of analytes were determined by UPLC–MS/MS, which consisted of an LC-30A ultra-performance liquid chromatography (Shimadzu, Japan), and Sciex Triple Quad 5500 tandem triple quadrupole mass spectrometer (Applied Biosystems Sciex, Framingham, MA, USA). The XSelect HSS T3 column (2.1 mm × 100 mm, 2.5 μm, Waters, Milford, MA, USA) was used for chromatographic separation. Phase A (0.1% formic acid in ultrapure water containing 5 mM ammonium acetate) and phase B (acetonitrile) were used as the mobile phases for gradient elution at 0.35 mL/min.
The experimental animals were randomly divided into five groups (n = 6 per group). […] Approximately 0.25 mL of blood was collected from the orbital venous plexus of rats in pre-heparinized centrifuge tubes. […] Blood samples were centrifuged at 3500 rpm for 10 min, and the plasma was transferred to new centrifuge tubes and then stored at −80 °C.
The Cmax and Tmax (time to maximum plasma concentration) were read directly from the drug concentrations. The other pharmacokinetic parameters were analyzed using a non-compartmental analysis with Phoenix WinNonLin 8.2 software (Pharsight, Mountain View, Certara, CA, USA).

[6] = Stability of QC samples in rat plasma under various storage conditions; details: for Stability, Autosampler: measured concentration / Stability, Freeze-Thaw: measured concentration / Stability, Bench-Top: measured concentration / Stability, Long-Term: measured concentration: rat plasma QC, n = 6; for Stability, Autosampler: measured concentration: autosampler for 12 h; for Stability, Freeze-Thaw: measured concentration: freeze–thaw three times; for Stability, Bench-Top: measured concentration: room temperature for 4 h; for Stability, Long-Term: measured concentration: −80 °C for 30 days
Procedure: as §1, §2

[7] = Sprague Dawley, rat, plasma, po, 1.2 mg/kg, lenvatinib in rat plasma, lenvatinib 1.2 mg/kg oral co-administered with canagliflozin 10 mg/kg (VLEN+CA), n = 6, mean ± SD
[8] = Sprague Dawley, rat, plasma, po, 1.2 mg/kg, lenvatinib in rat plasma, oral single dose lenvatinib 1.2 mg/kg alone (IILEN), n = 6, mean ± SD
[9] = lenvatinib (1.2 mg/kg) in the presence of canagliflozin (10 mg/kg) compared to lenvatinib alone, rats
[10] = lenvatinib in rat plasma, oral single dose lenvatinib 1.2 mg/kg alone (IILEN), n = 6, mean ± SD
[11] = Sprague Dawley, rat, plasma, po, 100 mg/kg, sorafenib in rat plasma, oral single dose sorafenib 100 mg/kg alone (ISOR), n = 6, mean ± SD
[12] = Sprague Dawley, rat, plasma, po, 100 mg/kg, sorafenib in rat plasma, sorafenib 100 mg/kg oral co-administered with canagliflozin 10 mg/kg (IVSOR+CA), n = 6, mean ± SD

Stability, Freeze-Thaw: measured concentration ([1]; 0.5 ng/mL): 0.53 ± 0.03 ng/mL
Stability, Freeze-Thaw: measured concentration ([1]; 150 ng/mL): 157.33 ± 11.02 ng/mL
Stability, Freeze-Thaw: measured concentration ([1]; 800 ng/mL): 725.83 ± 18.06 ng/mL
Stability, Bench-Top: measured concentration ([1]; 0.5 ng/mL): 0.54 ± 0.03 ng/mL
Stability, Bench-Top: measured concentration ([1]; 150 ng/mL): 156.67 ± 7.42 ng/mL
Stability, Bench-Top: measured concentration ([1]; 800 ng/mL): 794.00 ± 18.24 ng/mL
Stability, Autosampler: measured concentration ([1]; 0.5 ng/mL): 0.53 ± 0.04 ng/mL
Stability, Autosampler: measured concentration ([1]; 150 ng/mL): 162.67 ± 7.42 ng/mL
Stability, Autosampler: measured concentration ([1]; 800 ng/mL): 819.50 ± 30.36 ng/mL
Stability, Long-Term: measured concentration ([1]; 0.5 ng/mL): 0.47 ± 0.03 ng/mL
Stability, Long-Term: measured concentration ([1]; 150 ng/mL): 157.00 ± 12.63 ng/mL
Stability, Long-Term: measured concentration ([1]; 800 ng/mL): 714.00 ± 24.44 ng/mL
AUC(0-inf) [5, 7]: 7280 ± 1170 ng·h/mL
AUC(0-t) [5, 7]: 7280 ± 1170 ng·h/mL
CL/F [5, 7]: 2.83 mL/min/kg
CL/F [5, 8]: 3.67 mL/min/kg
Cmax [5, 7]: 985 ± 162 ng/mL
Cmax [5, 8]: 721 ± 144 ng/mL
Tmax ([5]; Sprague Dawley, rat, plasma, po, 1.2 mg/kg, Tmax, lenvatinib in rat plasma, oral single dose lenvatinib 1.2 mg/kg alone (IILEN), n = 6): 1.75 h
Vd/F [5, 7]: 1.56 ± 0.29 L/kg
Vd/F [5, 8]: 3.31 ± 1.51 L/kg
half-life [5, 7]: 6.49 ± 1.04 h
half-life [5, 8]: 10.5 ± 4.53 h
decrease of CLz/F [5, 9]: 22.7%
decrease of Vz/F [5, 9]: 52.9%
decrease of t1/2 [5, 9]: 38%
increase of AUCinf [5, 9]: 28.9%
increase of AUClast [5, 9]: 28.9%
increase of Cmax [5, 9]: 36.2%
Tmax ([5]; lenvatinib in rat plasma, lenvatinib 1.2 mg/kg oral co-administered with canagliflozin 10 mg/kg (VLEN+CA), n = 6): 1.50 (0.88–1.63) h
AUCinf [5, 10]: 5653 ± 1299 ng·h/mL
AUClast [5, 10]: 5640 ± 1292 ng·h/mL
increase of AUC ([5]; lenvatinib in the presence of canagliflozin, rats, abstract, AUC not specified as last or inf): 28.9%
Structure (SMILES): COc1cc2nccc(Oc3ccc(NC(=O)NC4CC4)c(Cl)c3)c2cc1C(N)=O [lenvatinib, Lenvatinib]
plasma protein binding rate [2]: approximately 98%
half-life [3]: 28 h
solubility [4]: low

stability during the different processing and storage conditions ([6]; rat plasma QC samples, room temperature 4 h, autosampler 12 h, −80 °C 30 days, three freeze–thaw cycles): stable
Stability, Autosampler: measured concentration ([6]; nominal 10 ng/mL): 11.13 ± 0.24 ng/mL
Stability, Freeze-Thaw: measured concentration ([6]; nominal 10 ng/mL): 10.55 ± 0.43 ng/mL
Stability, Bench-Top: measured concentration ([6]; nominal 10 ng/mL): 10.97 ± 0.29 ng/mL
Stability, Long-Term: measured concentration ([6]; nominal 10 ng/mL): 10.51 ± 0.43 ng/mL
Stability, Autosampler: measured concentration ([6]; nominal 1500 ng/mL): 1540.00 ± 95.71 ng/mL
Stability, Freeze-Thaw: measured concentration ([6]; nominal 1500 ng/mL): 1531.67 ± 117.88 ng/mL
Stability, Bench-Top: measured concentration ([6]; nominal 1500 ng/mL): 1551.67 ± 84.00 ng/mL
Stability, Long-Term: measured concentration ([6]; nominal 1500 ng/mL): 1565.00 ± 123.25 ng/mL
Stability, Autosampler: measured concentration ([6]; nominal 3750 ng/mL): 3961.67 ± 102.26 ng/mL
Stability, Freeze-Thaw: measured concentration ([6]; nominal 3750 ng/mL): 3698.33 ± 72.78 ng/mL
Stability, Bench-Top: measured concentration ([6]; nominal 3750 ng/mL): 3948.33 ± 99.88 ng/mL
Stability, Long-Term: measured concentration ([6]; nominal 3750 ng/mL): 3583.33 ± 67.43 ng/mL
AUC(0-inf) [5, 11]: 40300 ng·h/mL
AUC(0-inf) [5, 12]: 41300 ng·h/mL
AUC(0-t) [5, 11]: 40000 ng·h/mL
AUC(0-t) [5, 12]: 41200 ng·h/mL
CL/F [5, 11]: 47.7 mL/min/kg
CL/F [5, 12]: 42 mL/min/kg
Cmax [5, 11]: 1920 ± 298 ng/mL
Cmax [5, 12]: 2200 ± 535 ng/mL
Vd/F [5, 11]: 49 ± 18.8 L/kg
Vd/F [5, 12]: 38.3 ± 10.1 L/kg
half-life [5, 11]: 12.3 ± 2.23 h
Tmax ([5]; sorafenib in rat plasma, oral single dose sorafenib 100 mg/kg alone (ISOR), n = 6): 8.00 (7.00–8.00) h
t1/2z ([5]; sorafenib in rat plasma, sorafenib 100 mg/kg oral co-administered with canagliflozin 10 mg/kg (IVSOR+CA), n = 6, mean ± SD): 10.47 ± 0.94 h
Structure (SMILES): CNC(=O)c1cc(Oc2ccc(NC(=O)Nc3ccc(Cl)c(C(F)(F)F)c3)cc2)ccn1 [sorafenib, Sorafenib]
plasma protein binding rate [2]: 99.5%
time to peak blood concentration ([3]; after oral administration): approximately 3 h
solubility [4]: poor
permeability ([4]; membrane permeability): high
